From patent US20240368132A1, “ROCK2 INHIBITORS AND USES THEREOF” (President and Fellows of Harvard College, priority 2021, published 2024) come the findings set out here.

In experiment [1] the target is T1, ROCK1 (Homo sapiens, UniProt Q13464).
T1 construct: purchased Reaction Biology
As to the kind of experiment: ROCK1 kinase assay (Reaction Biology Hot Spot kinase assay). Conditions: purified kinase, 33P-ATP (10 μM), P81 filter-binding method. It is filed as biochemical. The protocol:
(§1) ROCK2 and ROCK] kinase assays
(§2) ROCK2 and ROCK1 enzyme potencies were determined by Reaction Biology (www.reactionbiology.com) using their Hot Spot kinase Assay. The base reaction buffer for the assay was 20 mM Hepes (pH 7.5), 10 mM MgCl2, 1 mM EGTA, 0.01% Brij35, 0.02 mg/mL BSA, 0.1 mM Na3VO4, and 2 mM DTT with a 1% DMSO concentration. Required cofactors were added individually to each kinase reaction. The substrate was freshly prepared in the reaction buffer described above, and then cofactors were delivered. The purified kinase was added to the substrate solution and then gently mixed. Compounds were added from 100% DMSO into the kinase reaction mixture by Acoustic technology (Echo550; nanoliter range) and then incubated for 20 min at room temperature. ^33P-ATP (10 μM) was delivered to initiate the reaction, and then the mixture was incubated again for two hours at room temperature. […] Nat. Biotechnol. 2011 Oct. 30; 29(11):1039-45. doi: 10.1038/nbt.2017.
(§3) The compounds were categorized based on IC50 value as “+”, “++”, “+++”, and “++++”. The category “+” refers to compounds with ROCK IC50 value of >10 μM. The category “++” refers to compounds with a ROCK IC50 value of 10 to 3 μM. The category “+++” refers to compounds with ROCK IC50 value of 3 to 0.3 μM. The category “++++” refers to compounds with a ROCK IC50 value of <0.3 μM. “ND” refers to “not determined.” The compound of an “Example Number” is the final product of an Example entitled the Example Number.

The target in experiment [2] is T2, ROCK2 (Homo sapiens, UniProt O75116).
T2 construct: purchased Reaction Biology
As to the kind of experiment: ROCK2 kinase assay (Reaction Biology Hot Spot kinase assay). Conditions: purified kinase, 33P-ATP (10 μM), P81 filter-binding method. It is filed as biochemical. The protocol:
as §1, §2, §3

T2 sequence (O75116 whole entry): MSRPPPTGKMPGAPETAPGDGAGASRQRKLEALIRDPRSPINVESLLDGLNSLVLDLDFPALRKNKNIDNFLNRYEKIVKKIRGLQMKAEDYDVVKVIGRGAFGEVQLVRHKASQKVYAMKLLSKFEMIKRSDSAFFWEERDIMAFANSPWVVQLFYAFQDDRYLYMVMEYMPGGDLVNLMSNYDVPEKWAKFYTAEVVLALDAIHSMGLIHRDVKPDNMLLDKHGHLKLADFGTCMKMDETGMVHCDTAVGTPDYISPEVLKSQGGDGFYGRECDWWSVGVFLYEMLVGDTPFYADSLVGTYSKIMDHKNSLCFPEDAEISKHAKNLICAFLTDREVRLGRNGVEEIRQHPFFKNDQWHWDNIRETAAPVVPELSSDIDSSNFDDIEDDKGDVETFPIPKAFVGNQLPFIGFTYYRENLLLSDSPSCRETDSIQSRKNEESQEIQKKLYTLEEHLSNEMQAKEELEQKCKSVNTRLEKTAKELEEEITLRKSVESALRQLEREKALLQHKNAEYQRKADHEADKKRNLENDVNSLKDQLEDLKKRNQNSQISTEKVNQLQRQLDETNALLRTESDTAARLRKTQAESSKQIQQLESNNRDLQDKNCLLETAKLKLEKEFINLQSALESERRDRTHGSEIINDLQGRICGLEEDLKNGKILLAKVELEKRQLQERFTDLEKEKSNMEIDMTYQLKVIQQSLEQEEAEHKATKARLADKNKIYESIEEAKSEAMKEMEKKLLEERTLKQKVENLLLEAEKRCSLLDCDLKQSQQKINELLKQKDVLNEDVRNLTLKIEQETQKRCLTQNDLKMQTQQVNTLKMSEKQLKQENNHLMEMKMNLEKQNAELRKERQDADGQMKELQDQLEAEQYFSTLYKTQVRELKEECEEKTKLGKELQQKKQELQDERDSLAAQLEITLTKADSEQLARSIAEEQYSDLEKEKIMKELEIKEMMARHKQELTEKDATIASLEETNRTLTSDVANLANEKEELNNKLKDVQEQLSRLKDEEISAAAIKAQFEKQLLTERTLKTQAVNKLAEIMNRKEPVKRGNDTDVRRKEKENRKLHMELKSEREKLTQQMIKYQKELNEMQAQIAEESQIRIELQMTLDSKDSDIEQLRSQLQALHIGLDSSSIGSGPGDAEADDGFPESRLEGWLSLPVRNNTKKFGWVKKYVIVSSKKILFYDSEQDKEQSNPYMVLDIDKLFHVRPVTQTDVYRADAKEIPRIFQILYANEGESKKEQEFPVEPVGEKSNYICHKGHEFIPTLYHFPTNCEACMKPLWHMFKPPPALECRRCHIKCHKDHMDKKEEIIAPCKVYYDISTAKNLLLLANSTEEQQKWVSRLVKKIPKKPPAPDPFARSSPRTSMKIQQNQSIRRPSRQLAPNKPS
T1 sequence (Q13464 whole entry): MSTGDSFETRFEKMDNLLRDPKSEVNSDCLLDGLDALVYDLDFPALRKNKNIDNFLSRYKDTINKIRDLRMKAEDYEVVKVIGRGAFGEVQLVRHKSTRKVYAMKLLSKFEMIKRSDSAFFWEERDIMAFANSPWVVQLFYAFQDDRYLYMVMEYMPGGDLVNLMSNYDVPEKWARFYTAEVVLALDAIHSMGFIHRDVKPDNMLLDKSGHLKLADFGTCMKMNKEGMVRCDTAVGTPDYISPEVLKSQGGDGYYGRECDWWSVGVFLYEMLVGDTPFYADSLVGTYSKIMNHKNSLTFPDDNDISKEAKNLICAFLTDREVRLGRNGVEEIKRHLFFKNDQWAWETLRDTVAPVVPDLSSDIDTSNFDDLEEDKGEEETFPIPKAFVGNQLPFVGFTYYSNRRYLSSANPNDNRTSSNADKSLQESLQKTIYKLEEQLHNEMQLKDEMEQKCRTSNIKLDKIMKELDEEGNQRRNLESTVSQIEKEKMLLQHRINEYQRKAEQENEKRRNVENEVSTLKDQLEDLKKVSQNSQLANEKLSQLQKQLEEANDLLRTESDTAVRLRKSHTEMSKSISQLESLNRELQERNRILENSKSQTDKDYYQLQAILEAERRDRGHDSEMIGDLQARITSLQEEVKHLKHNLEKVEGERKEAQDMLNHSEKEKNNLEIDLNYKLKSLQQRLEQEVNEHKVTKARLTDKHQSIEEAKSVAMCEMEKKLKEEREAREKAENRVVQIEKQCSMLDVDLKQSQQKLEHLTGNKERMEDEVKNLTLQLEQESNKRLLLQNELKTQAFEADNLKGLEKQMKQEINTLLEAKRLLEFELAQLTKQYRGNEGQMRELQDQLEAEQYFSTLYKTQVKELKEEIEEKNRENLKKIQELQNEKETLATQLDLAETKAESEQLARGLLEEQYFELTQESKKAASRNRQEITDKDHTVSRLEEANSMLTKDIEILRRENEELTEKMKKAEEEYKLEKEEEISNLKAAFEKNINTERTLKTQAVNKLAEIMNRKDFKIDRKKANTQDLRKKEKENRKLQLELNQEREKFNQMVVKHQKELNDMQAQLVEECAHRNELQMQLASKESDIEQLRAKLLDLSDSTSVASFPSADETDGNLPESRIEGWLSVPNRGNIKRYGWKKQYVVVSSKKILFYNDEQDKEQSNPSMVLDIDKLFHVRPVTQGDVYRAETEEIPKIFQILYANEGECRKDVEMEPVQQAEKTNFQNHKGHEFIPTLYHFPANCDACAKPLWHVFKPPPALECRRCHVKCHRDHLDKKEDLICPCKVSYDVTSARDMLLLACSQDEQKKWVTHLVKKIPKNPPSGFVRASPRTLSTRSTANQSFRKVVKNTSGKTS

By IC50 is commonly meant the concentration that gives 50% inhibition. A high value points to weaker potency. Take `COc1cc(-n2cc(C)c(Nc3ccc4[nH]ncc4c3Cl)n2)ccc1C(=O)NC(C)C` [Example 85, 4-(3-((4-chloro-1H-indazol-5-yl)amino)-4-methyl-1H-pyrazol-1-yl)-N-isopropyl-2-methoxybenzamide]: the IC50 in experiment [1] and in experiment [2] was under 0.3 µM throughout.
On to `COc1cc(-n2cc(C)c(Nc3ccc4[nH]ncc4c3Cl)n2)ccc1C(=O)NC1CCN(C)C1` (stereo not shown) [Example 86], for which the IC50 in experiment [1] and in experiment [2] was under 0.3 µM in each case.
With `COc1cc(-n2cc(C)c(Nc3ccc4[nH]ncc4c3Cl)n2)ccc1C(=O)NC1CCCC1` [Example 87], the results for the IC50 in experiment [1] and in experiment [2] were 0.3 to 3 µM and under 0.3 µM, respectively.
For `COc1cc(-n2cc(C)c(Nc3ccc4[nH]ncc4c3Cl)n2)ccc1C(=O)NCC(F)(F)F` [Example 88], the IC50 is over 10 µM in experiment [1] and under 0.3 µM in experiment [2].
For `COc1cc(-n2cc(C)c(Nc3ccc4[nH]ncc4c3Cl)n2)ccc1C(=O)N1CCCC1` [Example 89], the IC50 is over 10 µM in experiment [1] and 0.3 to 3 µM in experiment [2].
